From patent US11590139B2, “Substituted aminopurine compounds, compositions thereof, and methods of treatment therewith” (Signal Pharmaceuticals, LLC, priority 2014, dated 2023)

system: Lox-IMVI melanoma cell line; experiment: Lox-IMVI anti-proliferative assay (growth inhibition, Cell Titer-Glo); assay type: cell-based, human; conditions: Homo sapiens; IC50 activity level in the cell-based Lox-IMVI anti-proliferative assay; read-out: Activity
Method in brief: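 First, compound was dispensed as a 10-point 3-fold series (0.5 nM–10 μM, duplicate). Then cells in RPMI + 10% FBS were added and grown 72 h at 37 °C with 0.2% DMSO. Finally, ATP luminescence was read and IC50 calculated versus DMSO control.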

`C[C@@H](CO)Nc1ncc2nc(Nc3cc(Cl)ccc3F)n([C@H]3CC[C@@H](C(N)=O)CC3)c2n1` [Example 171, (1R,4s)-4-(8-(5-chloro-2-fluorophenylamino)-2-((S)-1-hydroxypropan-2-ylamino)-9H-purin-9-yl)cyclohexanecarboxamide] and `CC(C)Nc1ncc2nc(Nc3ccc(F)cc3Cl)n([C@H]3CC[C@@H](C(N)=O)CC3)c2n1` [Example 97, (1s,4s)-4-(8-(2-chloro-4-fluorophenylamino)-2-(isopropylamino)-9H-purin-9-yl)cyclohexanecarboxamide] cannot be ordered by IC50: greater than 1 µM for the first, greater than 1 µM for the second.

Compared with `NC(=O)[C@H]1CC[C@@H](n2c(Nc3cc(Cl)ccc3F)nc3cnc(N[C@@H]4CCC[C@H]4O)nc32)CC1` [Example 262, (1S,4s)-4-(8-(5-chloro-2-fluorophenylamino)-2-((1R,2R)-2-hydroxycyclopentylamino)-9H-purin-9-yl)cyclohexanecarboxamide], `C[C@@H]1CC[C@@H](Nc2ncc3nc(Nc4c(F)cc(Cl)cc4Cl)n([C@H]4CC[C@@H](C(N)=O)CC4)c3n2)C[C@H]1O` [Example 346, (1S,4s)-4-(8-(2,4-dichloro-6-fluorophenylamino)-2-((1R,3R,4R)-3-hydroxy-4-methylcyclohexylamino)-9H-purin-9-yl)cyclohexanecarboxamide] is lower in IC50: greater than 1 µM for the first, 0.25 to 0.5 µM for the second.

`NC(=O)[C@H]1CC[C@@H](n2c(Nc3c(F)cccc3F)nc3cnc(N[C@@H]4CCOC[C@@H]4F)nc32)CC1` [Example 304, (1S,4s)-4-(8-(2,6-difluorophenylamino)-2-((3R,4R)-3-fluorotetrahydro-2H-pyran-4-ylamino)-9H-purin-9-yl)cyclohexanecarboxamide] and `NC(=O)[C@H]1CC[C@@H](n2c(Nc3c(F)cc(F)cc3F)nc3cnc(N[C@H]4CC[C@H](O)C4)nc32)CC1` [Example 331, (1R,4s)-4-(2-((1S,3S)-3-hydroxycyclopentylamino)-8-(2,4,6-trifluorophenylamino)-9H-purin-9-yl)cyclohexanecarboxamide] cannot be ordered by IC50: greater than 1 µM for the first, greater than 1 µM for the second.

First: Cc1ccc(Nc2nc3cnc(NC4CCOCC4)nc3n2[C@H]2CC[C@@H](C(N)=O)CC2)c(F)c1F [Example 83, (1s,4s)-4-(8-(2,3-difluoro-4-methylphenylamino)-2-(tetrahydro-2H-pyran-4-ylamino)-9H-purin-9-yl)cyclohexanecarboxamide]
Second: NC(=O)[C@H]1CC[C@@H](n2c(Nc3c(F)cc(Cl)cc3Cl)nc3cnc(N[C@@H]4CCOC4)nc32)CC1 [Example 223, (1S,4s)-4-(8-(2,4-dichloro-6-fluorophenylamino)-2-((R)-tetrahydrofuran-3-ylamino)-9H-purin-9-yl)cyclohexanecarboxamide]
The IC50 of the first is higher: 0.5 to 1 µM for the first, 0.25 to 0.5 µM for the second.

`CS(=O)(=O)N1CCC(Nc2ncc3nc(Nc4c(Cl)cc(F)cc4Cl)n([C@H]4CC[C@@H](C(N)=O)CC4)c3n2)CC1` [Example 297, (1s,4s)-4-(8-(2,6-dichloro-4-fluorophenylamino)-2-(1-(methylsulfonyl)piperidin-4-ylamino)-9H-purin-9-yl)cyclohexanecarboxamide] and `CS(=O)(=O)N1CCC(Nc2ncc3nc(Nc4c(F)cccc4Cl)n([C@H]4CC[C@@H](C(N)=O)CC4)c3n2)CC1` [Example 114, (1s,4s)-4-(8-(2-chloro-6-fluorophenylamino)-2-(1-(methylsulfonyl)piperidin-4-ylamino)-9H-purin-9-yl)cyclohexanecarboxamide] cannot be ordered by IC50: greater than 1 µM for the first, greater than 1 µM for the second.

Compared with `NC(=O)[C@H]1CC[C@@H](n2c(Nc3c(Cl)cc(Cl)cc3Cl)nc3cnc(N[C@H]4C[C@@H](O)C4)nc32)CC1` [Example 323, (1s,4s)-4-(2-((1s,3s)-3-hydroxycyclobutylamino)-8-(2,4,6-trichlorophenylamino)-9H-purin-9-yl)cyclohexanecarboxamide], `NC(=O)[C@H]1CC[C@@H](n2c(Nc3c(Cl)cc(Cl)cc3Cl)nc3cnc(NC4CCC(F)(F)CC4)nc32)CC1` [Example 88, (1s,4s)-4-(2-(4,4-difluorocyclohexylamino)-8-(2,4,6-trichlorophenylamino)-9H-purin-9-yl)cyclohexanecarboxamide] is lower in IC50: greater than 1 µM for the first, 0.5 to 1 µM for the second.

For `NC(=O)[C@H]1CC[C@@H](n2c(Nc3c(F)ccc(Cl)c3F)nc3cnc(NC4CC(F)(F)C4)nc32)CC1` [Example 234, (1s,4s)-4-(8-(3-chloro-2,6-difluorophenylamino)-2-(3,3-difluorocyclobutylamino)-9H-purin-9-yl)cyclohexanecarboxamide], the IC50 was greater than 1 µM.

same assay, conditions: Homo sapiens; Lox-IMVI anti-proliferative assay, IC50 activity level; read-out: Activity

`NC(=O)[C@H]1CC[C@@H](n2c(Nc3c(F)cc(Cl)cc3Cl)nc3cnc(NCC(F)(F)CO)nc32)CC1` [Example 451, (1s,4s)-4-(8-(2,4-dichloro-6-fluorophenylamino)-2-(2,2-difluoro-3-hydroxypropylamino)-9H-purin-9-yl)cyclohexanecarboxamide] and `NC(=O)[C@H]1CC[C@@H](n2c(Nc3c(F)cc(Cl)cc3Cl)nc3cnc(N[C@@H]4CCCC[C@H]4O)nc32)CC1` [Example 470, (1S,4s)-4-(8-(2,4-dichloro-6-fluorophenylamino)-2-((1R,2R)-2-hydroxycyclohexylamino)-9H-purin-9-yl)cyclohexanecarboxamide] cannot be ordered by IC50: greater than 1 µM for the first, greater than 1 µM for the second.

Compared with `N#Cc1cc(Cl)c(Nc2nc3cnc(N[C@@H]4CCOC4)nc3n2[C@H]2CC[C@@H](C(N)=O)CC2)c(Cl)c1` [Example 518, (1S,4s)-4-(8-(2,6-dichloro-4-cyanophenylamino)-2-((R)-tetrahydrofuran-3-ylamino)-9H-purin-9-yl)cyclohexanecarboxamide], `C[C@H]1COCC[C@@H]1Nc1ncc2nc(Nc3c(F)cc(Cl)cc3Cl)n([C@H]3CC[C@@H](C(N)=O)CC3)c2n1` [Example 504, (1R,4s)-4-(8-(2,4-dichloro-6-fluorophenylamino)-2-((3R,4S)-3-methyltetrahydro-2H-pyran-4-ylamino)-9H-purin-9-yl)cyclohexanecarboxamide] is higher in IC50: 0.25 to 0.5 µM for the first, 0.5 to 1 µM for the second.

First: C[C@@H]1COCC[C@H]1Nc1ncc2nc(Nc3c(F)cc(F)cc3F)n([C@H]3CC[C@@H](C(N)=O)CC3)c2n1 [Example 533, (1S,4s)-4-(2-((3S,4R)-3-methyltetrahydro-2H-pyran-4-ylamino)-8-(2,4,6-trifluorophenylamino)-9H-purin-9-yl)cyclohexanecarboxamide]
Second: NC(=O)[C@H]1CC[C@@H](n2c(Nc3c(F)cc(Cl)cc3F)nc3cnc(N[C@@H]4CCC[C@@H](O)C4)nc32)CC1 [Example 421, (1S,4s)-4-(8-(4-chloro-2,6-difluorophenylamino)-2-((1R,3R)-3-hydroxycyclohexylamino)-9H-purin-9-yl)cyclohexanecarboxamide]
The IC50 of the first is lower: less than 0.25 µM for the first, greater than 1 µM for the second.

Going from `C[C@]1(C(N)=O)CC[C@H](n2c(Nc3c(F)cc(Cl)cc3Cl)nc3cnc(NC4CCC(F)(F)CC4)nc32)CC1` [Example 478, (1r,4r)-4-(8-(2,4-dichloro-6-fluorophenylamino)-2-(4,4-difluorocyclohexylamino)-9H-purin-9-yl)-1-methylcyclohexanecarboxamide] to `C[C@]1(C(N)=O)CC[C@@H](n2c(Nc3c(F)cc(F)cc3F)nc3cnc(NC4CCCC4)nc32)CC1` [Example 556, (1s,4s)-4-(2-(cyclopentylamino)-8-(2,4,6-trifluorophenylamino)-9H-purin-9-yl)-1-methylcyclohexanecarboxamide], the IC50 falls from greater than 1 µM to less than 0.25 µM. The second is the more potent here.

`C[C@]1(O)CCC[C@@H](Nc2ncc3nc(Nc4c(Cl)cccc4Cl)n([C@H]4CC[C@@H](C(N)=O)CC4)c3n2)C1` [Example 424, (1S,4s)-4-(8-(2,6-dichlorophenylamino)-2-((1R,3S)-3-hydroxy-3-methylcyclohexylamino)-9H-purin-9-yl)cyclohexanecarboxamide] gave an IC50 greater than 1 µM.

same assay, conditions: Homo sapiens; Lox-IMVI melanoma cell line, anti-proliferative assay; read-out: Activity (IC50 activity level)

Compared with `CS(=O)(=O)N1CCC[C@@H](Nc2ncc3nc(Nc4c(Cl)cc(C#N)cc4Cl)n([C@H]4CC[C@@H](C(N)=O)CC4)c3n2)C1` [Example 702, (1S,4s)-4-(8-(2,6-dichloro-4-cyanophenylamino)-2-((R)-1-(methylsulfonyl)piperidin-3-ylamino)-9H-purin-9-yl)cyclohexanecarboxamide], `COC(=O)N1CCC[C@@H](Nc2ncc3nc(Nc4c(Cl)cc(C#N)cc4Cl)n([C@H]4CC[C@@H](C(N)=O)CC4)c3n2)C1` [Example 708, (R)-methyl 3-(9-((1s,4S)-4-carbamoylcyclohexyl)-8-(2,6-dichloro-4-cyanophenylamino)-9H-purin-2-ylamino)piperidine-1-carboxylate] is lower in IC50: greater than 1 µM for the first, 0.25 to 0.5 µM for the second.

`N#Cc1cc(F)c(Nc2nc3cnc(NC4CCC(c5ncno5)CC4)nc3n2[C@H]2CC[C@@H](C(N)=O)CC2)c(Cl)c1` (stereo partly shown) [Example 680, (1s,4s)-4-(2-(4-(1,2,4-oxadiazol-5-yl)cyclohexylamino)-8-(2-chloro-4-cyano-6-fluorophenylamino)-9H-purin-9-yl)cyclohexanecarboxamide] and `N#Cc1cc(F)c(Nc2nc3cnc(N[C@@H]4CCCN(c5ccccc5)C4)nc3n2[C@H]2CC[C@@H](C(N)=O)CC2)c(Cl)c1` [Example 750, (1S,4s)-4-(8-(2-chloro-4-cyano-6-fluorophenylamino)-2-((R)-1-phenylpiperidin-3-ylamino)-9H-purin-9-yl)cyclohexanecarboxamide] cannot be ordered by IC50: greater than 1 µM for the first, greater than 1 µM for the second.

Compared with `C[C@]1(C(N)=O)CC[C@@H](n2c(Nc3c(F)cc(Cl)cc3F)nc3cnc(N[C@@H]4CC[C@@H](O)C4)nc32)CC1` [Example 639, (1S,4s)-4-(8-(4-chloro-2,6-difluorophenylamino)-2-((1R,3R)-3-hydroxycyclopentylamino)-9H-purin-9-yl)-1-methylcyclohexanecarboxamide], `NC(=O)[C@H]1CC[C@@H](n2c(Nc3c(F)cc(F)cc3F)nc3cnc(N[C@@H]4CCCN(Cc5ccccc5)C4)nc32)CC1` [Example 756, (1S,4s)-4-(2-((R)-1-benzylpiperidin-3-ylamino)-8-(2,4,6-trifluorophenylamino)-9H-purin-9-yl)cyclohexanecarboxamide] is higher in IC50: less than 0.25 µM for the first, greater than 1 µM for the second. The first is the more potent here.
